# Measurements taken from patent US8088815B2, “Spiroindolinone pyrrolidines” (Hoffman-La Roche Inc., priority 2009, dated 2012).
# Target: interaction between p53 and MDM2 proteins (Homo sapiens, UniProt Q00987)
# Assay: HTRF assay of inhibition of the p53-MDM2 interaction (GST-MDM2 / biotinylated p53 peptide)
# Assay type: binding
# Conditions: recombinant GST-tagged MDM2 and biotinylated p53 peptide, bsa:0.02%
# Sequence of interaction between p53 and MDM2 proteins (Q00987 whole entry): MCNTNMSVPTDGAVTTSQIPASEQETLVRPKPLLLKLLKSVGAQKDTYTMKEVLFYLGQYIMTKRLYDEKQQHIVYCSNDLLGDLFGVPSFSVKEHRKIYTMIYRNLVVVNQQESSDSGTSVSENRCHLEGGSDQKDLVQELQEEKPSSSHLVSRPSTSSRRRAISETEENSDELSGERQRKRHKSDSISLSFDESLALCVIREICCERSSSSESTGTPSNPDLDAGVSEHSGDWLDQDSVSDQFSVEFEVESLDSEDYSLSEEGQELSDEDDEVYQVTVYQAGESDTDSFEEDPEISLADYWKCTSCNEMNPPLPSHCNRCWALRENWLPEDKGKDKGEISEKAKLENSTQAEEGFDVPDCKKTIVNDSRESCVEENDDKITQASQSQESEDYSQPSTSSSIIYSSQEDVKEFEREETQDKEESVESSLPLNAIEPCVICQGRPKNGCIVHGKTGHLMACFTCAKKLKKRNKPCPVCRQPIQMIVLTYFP
row,SMILES,IC50
1,"CC(=O)OCC(C)(C)C[C@@H]1N[C@@H](C(=O)Nc2ccc(C#N)cc2)[C@H](c2cccc(Cl)c2F)[C@]12C(=O)Nc1cc(Cl)ccc12 (racemic) [Example 104, acetic acid rac-3-[(2′S,3′R,4′S,5′R)-6-chloro-4′-(3-chloro-2-fluoro-phenyl)-5′-(4-cyano-phenylcarbamoyl)-2-oxo-1,2-dihydro-spiro[indole-3,3′-pyrrolidin]-2′-yl]-2,2-dimethyl-propyl ester]",12 nM
2,"CC(C)(CO)C[C@@H]1N[C@@H](C(=O)Nc2ccc(C#N)cc2)[C@H](c2cccc(Cl)c2F)[C@]12C(=O)Nc1cc(Cl)ccc12 (racemic) [Example 105, rac-(2′S,3′R,4′S,5′R)-6-chloro-4′-(3-chloro-2-fluoro-phenyl)-2′-(3-hydroxy-2,2-dimethyl-propyl)-2-oxo-1,2-dihydro-spiro[indole-3,3′-pyrrolidine]-5′-carboxylic acid (4-cyano-phenyl)-amide]",13 nM
3,"CC(C)(CO)C[C@@H]1N[C@@H](C(=O)Nc2ccc(C(N)=O)cc2)[C@H](c2cccc(Cl)c2F)[C@]12C(=O)Nc1cc(Cl)ccc12 (racemic) [Example 106, rac-(2′S,3′R,4′S,5′R)-6-chloro-4′-(3-chloro-2-fluoro-phenyl)-2′-(3-hydroxy-2,2-dimethyl-propyl)-2-oxo-1,2-dihydro-spiro[indole-3,3′-pyrrolidine]-5′-carboxylic acid (4-carbamoyl-phenyl)-amide]",9 nM
4,"COC(=O)c1ccc(NC(=O)[C@@H]2N[C@@H](CC(C)(C)C)[C@@]3(C(=O)Nc4cc(Cl)ccc43)[C@H]2c2cccc(Cl)c2)c(OC)c1 (racemic) [Example 107, rac-4-{[(2′S,3′R,4′R,5′R)-6-chloro-4′-(3-chloro-phenyl)-2′-(2,2-dimethyl-propyl)-2-oxo-1,2-dihydro-spiro[indole-3,3′-pyrrolidine]-5′-carbonyl]-amino}-3-methoxy-benzoic acid methyl ester]",17 nM
5,"COc1cc(C(=O)O)ccc1NC(=O)[C@@H]1N[C@@H](CC(C)(C)C)[C@@]2(C(=O)Nc3cc(Cl)ccc32)[C@H]1c1cccc(Cl)c1 (racemic) [Example 108, rac-4-{[(2′S,3′R,4′R,5′R)-6-chloro-4′-(3-chloro-phenyl)-2′-(2,2-dimethyl-propyl)-2-oxo-1,2-dihydro-spiro[indole-3,3′-pyrrolidine]-5′-carbonyl]amino}-3-methoxy-benzoic acid]",9 nM
6,"COC(=O)c1ccc(NC(=O)[C@@H]2N[C@@H](CC(C)(C)C)[C@@]3(C(=O)Nc4cc(Cl)ccc43)[C@H]2c2cccc(Cl)c2F)c(OC)c1 (racemic) [Example 109, rac-4-{[(2′S,3′R,4′S,5′R)-6-chloro-4′-(3-chloro-2-fluoro-phenyl)-2′-(2,2-dimethyl-propyl)-2-oxo-1,2-dihydro-spiro[indole-3,3′-pyrrolidine]-5′-carbonyl]amino}-3-methoxy-benzoic acid methyl ester]",11 nM
7,"COc1cc(C(=O)O)ccc1NC(=O)[C@@H]1N[C@@H](CC(C)(C)C)[C@@]2(C(=O)Nc3cc(Cl)ccc32)[C@H]1c1cccc(Cl)c1F (racemic) [Example 110, rac-4-{[(2′S,3′R,4′S,5′R)-6-chloro-4′-(3-chloro-2-fluoro-phenyl)-2′-(2,2-dimethyl-propyl)-2-oxo-1,2-dihydro-spiro[indole-3,3′-pyrrolidine]-5′-carbonyl]-amino}-3-methoxy-benzoic acid]",11 nM
8,"COc1cc(C#N)ccc1NC(=O)[C@@H]1N[C@@H](CC(C)(C)C)[C@@]2(C(=O)Nc3cc(Cl)c(F)cc32)[C@H]1c1cccc(Cl)c1F (racemic) [Example 112, rac-(2′S,3′R,4′S,5′R)-6-chloro-4′-(3-chloro-2-fluoro-phenyl)-2′-(2,2-dimethyl-propyl)-5-fluoro-2-oxo-1,2-dihydro-spiro[indole-3,3′-pyrrolidine]-5′-carboxylic acid (4-cyano-2-methoxy-phenyl)-amide]",15 nM
